Values of other authors as cited in US20080102137A1, “Composition and method for etiological treatment and prevention of diseases and/or complications associated with chronic glucose metabolism destabilization” (priority 2006, published 2008).

Legend:
[1] = 600 mg synthetic α-tocopherol daily for 14 days, diabetic individuals
[2] = patients with panic disorders
[3] = tested on: fat cells; settings: test tube assay of fat cells
[4] = tested on: blood platelet; settings: blood platelet assay

## Cc1c(C)c2c(c(C)c1O)CC[C@@](C)(CCC[C@H](C)CCC[C@H](C)CCCC(C)C)O2 [α-tocopherol]
[1]
  biochemical marker of oxidative stress: reduction in the oxidative stress marker

## O[C@H]1[C@H](O)[C@@H](O)[C@H](O)[C@@H](O)[C@H]1O [inositol]
[2]
  frequency and severity of panic attacks: reduction in the frequency and severity of panic attacks

## methylhydroxy chalcone polymer [MHCP]
[3]
  increased glucose metabolism: roughly 20 fold
[4]
  formation of damaging oxygen radicals: prevented the formation of damaging oxygen radicals

## CN(C)C(=N)N=C(N)N [Metformin]
average
  lowers fasting blood glucose levels: 25%
Cases of metabolic syndrome
  reduces raised plasma insulin levels: ≤ 30%
In vivo
  lowers postprandial blood glucose: up to 44.5%
